Tests used:
Format in all cases: in vitro ADME
[1] = In vitro plasma stability, dog plasma; conditions: male, pH 7.4, 5 μM, 37° C., sampling 0-360 minutes, read-out: T1/2 Dog
Protocol: (§1) Certain compounds from Table 1 were tested for their stability in plasma. The assay system comprised plasma from rat, dog or human (at least 3 donors, male, pooled) at pH 7.4, and (ii) an anticoagulant (sodium heparin or sodium citrate). Each test compound (5 μM) was incubated in plasma at 37° C. on a THERMOMIXER® with shaking. Three samples (n=3) were taken at each of seven sampling time points: 0, 10, 30, 60, 90, 180 and 360 minutes. The samples were immediately combined with 3 volumes (i.e., 3 times the volume of plasma) of acetonitrile containing 1% formic acid and an internal standard to terminate the reaction. AB SCIEX API 3000 LC-MS/MS analysis of the test compounds was performed without a standard curve. Plasma half-lives (T1/2) of the test compounds were determined from graphs of the percent remaining values using the peak area response ratio.

[2] = In vitro plasma stability, rat plasma; conditions: male, pH 7.4, 5 μM, 37° C., sampling 0-360 minutes, read-out: T1/2 Rat
Protocol: as §1

[3] = In vitro plasma stability, human plasma; conditions: male, pH 7.4, 5 μM, 37° C., sampling 0-360 minutes, read-out: T1/2 Human
Protocol: as §1

Row | half-life at 5 μM [1] [min] | half-life at 5 μM [2] [min] | half-life at 5 μM [3] [min] | Structure (SMILES)
1 | 172 | 78 | 108 | CN1N=C(c2ccc(F)cc2)C(C)(NO)C1=O (stereo not drawn) [Compound 5, 5-(4-fluorophenyl)-4-(hydroxyamino)-2,4-dimethyl-2,4-dihydro-3H-pyrazol-3-one]
2 | 117 | 34 | 104 | Cc1cc(C)cc(C2=NN(C)C(=O)C2(C)NO)c1 (stereo not drawn) [Compound 7, 5-(3,5-dimethylphenyl)-4-(hydroxyamino)-2,4-dimethyl-2,4-dihydro-3H-pyrazol-3-one]
3 | 170 |  |  | CC(C)N1N=C(c2ccccc2Cl)C(C)(NO)C1=O (stereo not drawn) [Compound 8, 5-(2-chlorophenyl)-4-(hydroxyamino)-2-iso-propyl-4-methyl-2,4-dihydro-3H-pyrazol-3-one]
4 | 59 | 17 | 43 | CN1N=C(c2cc(Cl)cc(Cl)c2)C(C)(NO)C1=O (stereo not drawn) [Compound 9, 5-(3,5-dichlorophenyl)-4-(hydroxyamino)-2,4-dimethyl-2,4-dihydro-3H-pyrazol-3-one]
5 | 40 | 21 | 12 | CO/N=C(\C)C1(NO)C(=O)N(C)N=C1C(C)(C)C (stereo not drawn) [Compound 10, 5-(tert-butyl)-4-(hydroxyamino)-4-(1-(methoxyimino)ethyl)-2-methyl-2,4-dihydro-3H-pyrazol-3-one]
6 | 39 | 88 | 65 | CN1N=C(c2ccc([S+](C)[O-])cc2)C(C)(NO)C1=O (stereo not drawn) [Compound 11, 4-(hydroxyamino)-2,4-dimethyl-5-(4-(methylsulfinyl)phenyl)-2,4-dihydro-3H-pyrazol-3-one]
7 | 28 | 20 | 18 | CN1N=C(c2ccc(F)cc2Cl)C(C)(NO)C1=O (stereo not drawn) [Compound 12, 5-(2-chloro-4-fluorophenyl)-4-(hydroxyamino)-2,4-dimethyl-2,4-dihydro-3H-pyrazol-3-one]
8 | 8 |  |  | CO/N=C(\C)C1(NO)C(=O)N(c2ccccc2)N=C1C(C)C (stereo not drawn) [Compound 16, 4-(hydroxyamino)-5-iso-propyl-4-(1-(methoxyimino)ethyl)-2-phenyl-2,4-dihydro-3H-pyrazol-3-one]
9 | < 1 |  |  | CO/N=C(\C)C1(NO)C(=O)N(c2ccc(Br)cc2)N=C1C(C)C (stereo not drawn) [Compound 17, 2-(4-bromophenyl)-4-(hydroxyamino)-5-iso-propyl-4-(1-(methoxyimino)ethyl)-2,4-dihydro-3H-pyrazol-3-one]
10 | 13 | 17 | 26 | CO/N=C(\C)C1(NO)C(=O)N(c2ccccc2)N=C1C(C)(C)C (stereo not drawn) [Compound 18, 5-(tert-butyl)-4-(hydroxyamino)-4-(1-(methoxyimino)ethyl)-2-phenyl-2,4-dihydro-3H-pyrazol-3-one]
11 | 95 | 90 | 163 | COc1ccc(C2=NN(C)C(=O)C2(C)NO)cc1F (stereo not drawn) [Compound 19, 5-(3-fluoro-4-methoxyphenyl)-4-(hydroxyamino)-2,4-dimethyl-2,4-dihydro-3H-pyrazol-3-one]
12 | 20 |  |  | CO/N=C(\C)C1(NO)C(=O)N(C)N=C1C1CC1 (stereo not drawn) [Compound 20, 5-cyclopropyl-4-(hydroxyamino)-4-(1-(methoxyimino)ethyl)-2-methyl-2,4-dihydro-3H-pyrazol-3-one]
13 | 24 | 36 | 41 | CN1N=C(c2ccccc2[S+](C)[O-])C(C)(NO)C1=O (stereo not drawn) [Compound 21, 4-(hydroxyamino)-2,4-dimethyl-5-(2-(methylsulfinyl)phenyl)-2,4-dihydro-3H-pyrazol-3-one]
14 | 87 |  |  | CO/N=C(\C)C1(NO)C(=O)N(C(C)C)N=C1C(C)(C)C (stereo not drawn) [Compound 28, 5-(tert-butyl)-4-(hydroxyamino)-2-iso-propyl-4-(1-(methoxyimino)ethyl)-2,4-dihydro-3H-pyrazol-3-one]
15 | 58 |  |  | CC1(NO)C(=O)N(c2ccccc2)N=C1c1ccccc1F (stereo not drawn) [Compound 29, 5-(2-fluorophenyl)-4-(hydroxyamino)-4-methyl-2-phenyl-2,4-dihydro-3H-pyrazol-3-one]
16 | 26 |  |  | CC1(NO)C(=O)N(c2ccc(Br)cc2)N=C1c1ccccc1Cl (stereo not drawn) [Compound 44, 1-(4-bromophenyl)-3-(2-chlorophenyl)-4-(hydroxyamino)-4-methyl-1H-pyrazol-5(4H)-one]
17 | 11 |  |  | CC1=NN(c2ccc(Br)cc2)C(=O)C1(NO)c1ccccc1 (stereo not drawn) [Compound 47, 1-(4-bromophenyl)-4-(hydroxyamino)-3-methyl-4-phenyl-1H-pyrazol-5(4H)-one]
18 | 356 |  |  | CC1(NO)C(=O)N(c2ccc(Br)cc2)N=C1c1ccccc1 (stereo not drawn) [Compound 50, 1-(4-bromophenyl)-4-(hydroxyamino)-4-methyl-3-phenyl-1H-pyrazol-5(4H)-one]
19 | 8 |  |  | CO/N=C(\C)C1(NO)C(=O)N(C)N=C1c1ccc(C(F)(F)F)cc1 (stereo not drawn) [Compound 52, 4-(hydroxyamino)-4-(1-(methoxyimino)ethyl)-1-methyl-3-(4-(trifluoromethyl)phenyl)-1H-pyrazol-5(4H)-one]

Row | half-life at 5 μM [1] [min] | half-life at 5 μM [2] [min] | half-life at 5 μM [3] [min] | Structure (SMILES)
20 | 159 |  |  | CN1N=C(c2cccc(Cl)c2)C(C)(NO)C1=O (stereo not drawn) [Compound 54, 3-(3-chlorophenyl)-4-(hydroxyamino)-1,4-dimethyl-1H-pyrazol-5(4H)-one]
21 | 116 |  |  | COc1ccccc1C1=NN(C)C(=O)C1(C)NO (stereo not drawn) [Compound 55, 4-(hydroxyamino)-3-(2-methoxyphenyl)-1,4-dimethyl-1H-pyrazol-5(4H)-one]
22 | 69 |  |  | CN1N=C(c2ccccc2OC(F)(F)F)C(C)(NO)C1=O (stereo not drawn) [Compound 56, 4-(hydroxyamino)-1,4-dimethyl-3-(2-(trifluoromethoxy)phenyl)-1H-pyrazol-5(4H)-one]
23 | 15 |  |  | CN1N=C(c2cccc(Cl)c2Cl)C(C)(NO)C1=O (stereo not drawn) [Compound 57, 3-(2,3-dichlorophenyl)-4-(hydroxyamino)-1,4-dimethyl-1H-pyrazol-5(4H)-one]
24 | 19 |  |  | CN1N=C(c2ccc(Cl)cc2Cl)C(C)(NO)C1=O (stereo not drawn) [Compound 58, 3-(2,4-dichlorophenyl)-4-(hydroxyamino)-1,4-dimethyl-1H-pyrazol-5(4H)-one]
25 | 49 |  |  | CN1N=C(c2ccccc2C(F)(F)F)C(C)(NO)C1=O (stereo not drawn) [Compound 60, 4-(hydroxyamino)-1,4-dimethyl-3-(2-(trifluoromethyl)phenyl)-1H-pyrazol-5(4H)-one]
26 | > 360 |  |  | CC1(NO)C(=O)N(c2ccccc2)N=C1C(F)(F)F (stereo not drawn) [Compound 61, 4-(hydroxyamino)-4-methyl-1-phenyl-3-(trifluoromethyl)-1H-pyrazol-5(4H)-one]
27 | 44 | 114 |  | CCOc1cc(F)ccc1C1=NN(C)C(=O)C1(C)NO (stereo not drawn) [Compound 62, 3-(2-ethoxy-4-fluorophenyl)-4-(hydroxyamino)-1,4-dimethyl-1H-pyrazol-5(4H)-one]
28 | > 360 |  |  | CO/N=C(\C)C1(NO)C(=O)N(C)N=C1C(C)C (stereo not drawn) [Compound 63, 4-(hydroxyamino)-3-isopropyl-4-(1-(methoxyimino)ethyl)-1-methyl-1H-pyrazol-5(4H)-one]
29 | 8 |  |  | CC1=NN(C)C(=O)C1(NO)c1ccc([S+](C)[O-])cc1 (stereo not drawn) [Compound 65, 4-(hydroxyamino)-1,3-dimethyl-4-(4-(methylsulfinyl)phenyl)-1H-pyrazaol-5(4H)-one]
30 | 21 |  |  | COc1ccc(C2(NO)C(=O)N(C)N=C2C)cc1C (stereo not drawn) [Compound 76, 4-(Hydroxyamino)-4-(4-methoxy-3-methylphenyl)-1,3-dimethyl-4,5-dihydro-1H-pyrazol-5-one]
31 | 226 |  |  | CN1N=C(c2ccc(C(C)(C)C)cc2)C(C)(NO)C1=O (stereo not drawn) [Compound 91, 3-(4-tert-Butylphenyl)-4-(hydroxyamino)-1,4-dimethyl-4,5-dihydro-1H-pyrazol-5-one]
32 | 120 |  |  | CN1N=C(c2ccc(C(=O)NCC(=O)O)cc2)C(C)(NO)C1=O (stereo not drawn) [Compound 95, 2-({4-[4-(Hydroxyamino)-1,4-dimethyl-5-oxo-4,5-dihydro-1H-pyrazol-3-yl]phenyl}formamido)acetic acid]
33 | 6 |  |  | CC1=NN(C)C(=O)C1(NO)c1cccc(F)c1 (stereo not drawn) [Compound 96, 4-(3-Fluorophenyl)-4-(hydroxyamino)-1,3-dimethyl-4,5-dihydro-1H-pyrazol-5-one]
34 | 4 |  |  | CC1=NN(C)C(=O)C1(NO)c1cccc(Cl)c1 (stereo not drawn) [Compound 99, 4-(3-Chlorophenyl)-4-(hydroxyamino)-1,3-dimethyl-4,5-dihydro-1H-pyrazol-5-one]
35 | < 1 |  |  | CC1=NN(C)C(=O)C1(NO)/C(C)=N/Oc1ccccc1 (stereo not drawn) [Compound 102, 4-(Hydroxyamino)-1,3-dimethyl-4-[1-(phenoxyimino)ethyl]-4,5-dihydro-1H-pyrazol-5-one]
36 | 3 |  |  | CC1=NN(C)C(=O)C1(NO)/C(C)=N/OCc1ccccc1 (stereo not drawn) [Compound 103, 4-(Hydroxyamino)-1,3-dimethyl-4-[1-(benzyloxyimino)ethyl]-4,5-dihydro-1H-pyrazol-5-one]
37 | 3 | 7 |  | CO/N=C(\C)C1(NO)C(=O)N(c2ccccc2)N=C1Sc1ccccc1 (stereo not drawn) [Compound 128, 4-(Hydroxyamino)-4-[1(methoxyimino)ethyl]-1-phenyl-3-(phenylsulfanyl)-4,5-dihydro-1H-pyrazol-5-one]
